Results from US9708314B2, “Heterocyclic amide compound” (NISSAN CHEMICAL INDUSTRIES, LTD., priority 2013, dated 2017).

Assays:
Format in all cases: in vivo
[1] = tested on: Echinochloa oryzacola Vasing.; assay: Test Example 2: herbicidal activity, application during weed generation in submerged conditions; settings: Eighteenth Table; application herbicide amount 320 g/ha
Outline: (§1)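 Seeds were sown together in alluvial soil kept under 4 cm of water and grown at 25 °C to 30 °C. Once plants reached the one- to two-leaf stage, the diluted emulsion was applied to the water surface at a predetermined g/ha amount, and effects were rated 0–5 after three weeks.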

[2] = tested on: Monochoria vaginalis; assay: as above; settings: Eighteenth Table; application herbicide amount 320 g/ha
Outline: as §1

[3] = tested on: Scirpus juncoides; assay: as above; settings: Eighteenth Table; application herbicide amount 320 g/ha
Outline: as §1

[4] = tested on: transplanted Oryza sativa; assay: Test Example 1: effect on crop, application before weed generation in submerged conditions; settings: Application herbicide amount 320 g/ha; Seventeenth Table
Outline: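 Water-diluted emulsion formulation is applied onto flood water (4 cm deep) covering alluvial soil on the day weed seeds are sown, after transplanting 2.5 leaf stage rice. Rates are expressed per hectare. Injury or control is graded 0–5 three weeks later.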

[5] = tested on: Echinochloa crus-galli var. crus-galli; assay: Test Example 3: herbicidal effect by application to foliage (Wagner pot, water depth 0.1-0.5 cm); settings: Nineteenth Table; application to foliage; application herbicide amount 320 g/ha
Outline: (§2)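 Alluvial soil in 1/10000 are Wagner pots, sown and grown 14 days in a 25–30 °C greenhouse. An emulsifiable concentrate diluted in water to the set dose (g/ha) was sprayed on stems and leaves. Effect scored three weeks later on a 0–5 scale: 5 = ≥90% herbicidal ratio, 0 = ≤5%.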

[6] = tested on: Cyperus difformis; assay: as above; settings: Nineteenth Table; application to foliage; application herbicide amount 320 g/ha
Outline: as §2

[7] = tested on: Leptochloa chinensis; assay: as above; settings: Nineteenth Table; application to foliage; application herbicide amount 320 g/ha
Outline: as §2

SMILES	A (Echinochloa oryzicola Vasing.) herbicidal ratio grade [1]	C (Monochoria vaginalis) herbicidal ratio grade [2]	B (Scirpus juncoides) herbicidal ratio grade [3]	a: transplanted Oryza sativa (effect on crop grade) [4]	H (herbicidal effect grade) [5]	E (herbicidal effect grade) [6]	D (herbicidal effect grade) [7]
Cc1nnc(NC(=O)c2ccc(C(F)(F)F)n3c(N(C)CCC#N)nnc23)o1 [1-153]	3 (Herbicidal ratio of 40% or more and less than 70%)	3 (Herbicidal ratio of 40% or more and less than 70%)	3 (Herbicidal ratio of 40% or more and less than 70%)	2 (Herbicidal ratio of 20% or more and less than 40%)	5 (Herbicidal ratio of 90% or more (almost completely withered))	3 (Herbicidal ratio of 40% or more and less than 70%)	5 (Herbicidal ratio of 90% or more (almost completely withered))
Cn1nnnc1NC(=O)c1ccc(C(F)(F)F)n2c(C3CC3)nnc12 [2-005]	5 (Herbicidal ratio of 90% or more (almost completely withered))	4 (Herbicidal ratio of 70% or more and less than 90%)	3 (Herbicidal ratio of 40% or more and less than 70%)	0 (Herbicidal ratio of 5% or less (almost no effect))	5 (Herbicidal ratio of 90% or more (almost completely withered))	4 (Herbicidal ratio of 70% or more and less than 90%)	5 (Herbicidal ratio of 90% or more (almost completely withered))
CCC(CC)c1nnc2c(C(=O)Nc3nnnn3C)ccc(C(F)(F)F)n12 [2-006]	5 (Herbicidal ratio of 90% or more (almost completely withered))	5 (Herbicidal ratio of 90% or more (almost completely withered))	5 (Herbicidal ratio of 90% or more (almost completely withered))	4 (Herbicidal ratio of 70% or more and less than 90%)	5 (Herbicidal ratio of 90% or more (almost completely withered))	5 (Herbicidal ratio of 90% or more (almost completely withered))	5 (Herbicidal ratio of 90% or more (almost completely withered))
Cn1nnnc1NC(=O)c1ccc(C(F)(F)F)n2c(-c3ccccc3)nnc12 [2-007]	4 (Herbicidal ratio of 70% or more and less than 90%)	4 (Herbicidal ratio of 70% or more and less than 90%)	4 (Herbicidal ratio of 70% or more and less than 90%)	3 (Herbicidal ratio of 40% or more and less than 70%)	5 (Herbicidal ratio of 90% or more (almost completely withered))	5 (Herbicidal ratio of 90% or more (almost completely withered))	5 (Herbicidal ratio of 90% or more (almost completely withered))
Cn1nnnc1NC(=O)c1ccc(C(F)(F)F)n2c(Cl)nnc12 [2-008]	3 (Herbicidal ratio of 40% or more and less than 70%)	3 (Herbicidal ratio of 40% or more and less than 70%)	2 (Herbicidal ratio of 20% or more and less than 40%)	1 (Herbicidal ratio of 5% or more and less than 20%)	4 (Herbicidal ratio of 70% or more and less than 90%)	4 (Herbicidal ratio of 70% or more and less than 90%)	5 (Herbicidal ratio of 90% or more (almost completely withered))
Cn1nnnc1NC(=O)c1ccc(C(F)(F)F)n2c(Br)nnc12 [2-009]	3 (Herbicidal ratio of 40% or more and less than 70%)	3 (Herbicidal ratio of 40% or more and less than 70%)	2 (Herbicidal ratio of 20% or more and less than 40%)	0 (Herbicidal ratio of 5% or less (almost no effect))	5 (Herbicidal ratio of 90% or more (almost completely withered))	3 (Herbicidal ratio of 40% or more and less than 70%)	4 (Herbicidal ratio of 70% or more and less than 90%)
COCc1nnc2c(C(=O)Nc3nnnn3C)ccc(C(F)(F)F)n12 [2-010, 3-(Methoxymethyl)-N-(1-methyl-1H-tetrazol-5-yl)-5-(trifluoromethyl)-[1,2,4]triazol o[4,3-a]pyridine-8-carboxamide]	5 (Herbicidal ratio of 90% or more (almost completely withered))	4 (Herbicidal ratio of 70% or more and less than 90%)	4 (Herbicidal ratio of 70% or more and less than 90%)	4 (Herbicidal ratio of 70% or more and less than 90%)	5 (Herbicidal ratio of 90% or more (almost completely withered))	5 (Herbicidal ratio of 90% or more (almost completely withered))	5 (Herbicidal ratio of 90% or more (almost completely withered))
COc1ccc(-c2nnc3c(C(=O)Nc4nnnn4C)ccc(C(F)(F)F)n23)cc1 [2-011]	4 (Herbicidal ratio of 70% or more and less than 90%)	4 (Herbicidal ratio of 70% or more and less than 90%)	3 (Herbicidal ratio of 40% or more and less than 70%)	2 (Herbicidal ratio of 20% or more and less than 40%)	5 (Herbicidal ratio of 90% or more (almost completely withered))	5 (Herbicidal ratio of 90% or more (almost completely withered))	5 (Herbicidal ratio of 90% or more (almost completely withered))
Cn1nnnc1NC(=O)c1ccc(C(F)(F)F)n2c(-c3ccc(Cl)cc3)nnc12 [2-012]	4 (Herbicidal ratio of 70% or more and less than 90%)	5 (Herbicidal ratio of 90% or more (almost completely withered))	5 (Herbicidal ratio of 90% or more (almost completely withered))	1 (Herbicidal ratio of 5% or more and less than 20%)	4 (Herbicidal ratio of 70% or more and less than 90%)	5 (Herbicidal ratio of 90% or more (almost completely withered))	5 (Herbicidal ratio of 90% or more (almost completely withered))
CSc1nnc2c(C(=O)Nc3nnnn3C)ccc(C(F)(F)F)n12 [2-013]	5 (Herbicidal ratio of 90% or more (almost completely withered))	2 (Herbicidal ratio of 20% or more and less than 40%)	3 (Herbicidal ratio of 40% or more and less than 70%)	3 (Herbicidal ratio of 40% or more and less than 70%)	5 (Herbicidal ratio of 90% or more (almost completely withered))	5 (Herbicidal ratio of 90% or more (almost completely withered))	5 (Herbicidal ratio of 90% or more (almost completely withered))
